Target: T1, human AT1 receptor (Homo sapiens, UniProt P30556)
T1 construct: expressed in transfected cells; membrane fraction
T1 sequence (P30556 1-359): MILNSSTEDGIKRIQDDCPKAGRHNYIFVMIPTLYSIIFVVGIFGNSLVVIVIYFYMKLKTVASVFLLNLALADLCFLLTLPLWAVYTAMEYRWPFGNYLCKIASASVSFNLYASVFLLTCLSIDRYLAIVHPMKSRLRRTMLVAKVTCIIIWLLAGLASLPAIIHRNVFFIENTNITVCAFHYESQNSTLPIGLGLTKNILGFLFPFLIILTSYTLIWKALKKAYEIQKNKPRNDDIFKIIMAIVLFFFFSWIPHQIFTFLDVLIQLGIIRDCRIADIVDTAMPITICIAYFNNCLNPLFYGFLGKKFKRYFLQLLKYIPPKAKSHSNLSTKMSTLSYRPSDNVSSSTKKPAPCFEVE
Assay: AT1 receptor antagonistic activity: [125I]-angiotensin II binding assay on human AT1 receptor-expressing CHO-K1 cellular membrane fraction
Conditions: 22.5 pM [125I]-angiotensin II, 1 hr room temperature
Procedure: CHO-K1 cell (RIKEN, Japan) capable of stable expression of human AT1 receptor was cultured, recovered, suspended in homogenize buffer (10 mM NaHCO3 (pH 7.4), 5 mM EDTA, 1× Complete EDTA free) [manufactured by Roche, Switzerland], and homogenized. The homogenate was centrifuged at low-speed (900×g, 10 min, 4° C.), and the supernatant was recovered and ultracentrifuged (90,000×g, 1 hr, 4° C.). The supernatant was discarded, and the pellets were resuspended in suspension buffer (50 mM Tris (pH 7.4), 1 mM EDTA, 1× Complete EDTA free).
(9 μg) in the presence of AT1 membrane and test compound in 100 μl, (total reaction volume) of reaction buffer (50 mM Tris (pH 7.4), 10 mM MgCl2 supplemented or not supplemented with 0.3 mg/mL fatty acid-free bovine serum albumin [manufactured by Wako Pure Chemical Industries, Ltd., Japan]). The reaction mixture was incubated in 96 well polypropylene plate for 1 hr at room temperature, and the reaction was quenched by rapid filtration (96 well cell harvester) through a GF/C filter treated with wash buffer (50 mM Tris (pH 7.4)). Subsequently, the filter was washed 5 times with 0.3 mL of ice-cooled wash buffer. […] Total binding was measured in the presence of 1% DMSO and nonspecific binding was measured in the presence of […] Candesartan.

`CCCc1c(Cc2ccc(-c3ccccc3-c3noc(=O)[nH]3)cc2)c(=O)n([C@H]2CC[C@H](OC(C)C(C)(C)O)CC2)c2ncnn12` (single isomer, unassigned) [Example 318, 4-[trans-4-(2-hydroxy-1,2-dimethylpropoxy)cyclohexyl]-6-{[2′-(5-oxo-4,5-dihydro-1,2,4-oxadiazol-3-yl)biphenyl-4-yl]methyl}-7-propyl[1,2,4]triazolo[1,5-a]pyrimidin-5(4H)-one (retention time: short)] and `CCCCc1c(Cc2ccc(-c3ccccc3-c3noc(=O)[nH]3)cc2)c(=O)n(C2CCOC(C)C2)c2ncnn12` (stereo not shown) [Example 160, 7-butyl-4-(2-methyltetrahydro-2H-pyran-4-yl)-6-{[2′-(5-oxo-4,5-dihydro-1,2,4-oxadiazol-3-yl)biphenyl-4-yl]methyl}[1,2,4]triazolo[1,5-a]pyrimidin-5(4H)-one] are within 1.5-fold of each other in IC50: 1.8 nM for the first, 1.3 nM for the second.

Target: T2, human PPARγ (Homo sapiens, UniProt P37231)
T2 construct: expressed in transfected cells
T2 sequence (P37231 1-477 isoform P37231-2): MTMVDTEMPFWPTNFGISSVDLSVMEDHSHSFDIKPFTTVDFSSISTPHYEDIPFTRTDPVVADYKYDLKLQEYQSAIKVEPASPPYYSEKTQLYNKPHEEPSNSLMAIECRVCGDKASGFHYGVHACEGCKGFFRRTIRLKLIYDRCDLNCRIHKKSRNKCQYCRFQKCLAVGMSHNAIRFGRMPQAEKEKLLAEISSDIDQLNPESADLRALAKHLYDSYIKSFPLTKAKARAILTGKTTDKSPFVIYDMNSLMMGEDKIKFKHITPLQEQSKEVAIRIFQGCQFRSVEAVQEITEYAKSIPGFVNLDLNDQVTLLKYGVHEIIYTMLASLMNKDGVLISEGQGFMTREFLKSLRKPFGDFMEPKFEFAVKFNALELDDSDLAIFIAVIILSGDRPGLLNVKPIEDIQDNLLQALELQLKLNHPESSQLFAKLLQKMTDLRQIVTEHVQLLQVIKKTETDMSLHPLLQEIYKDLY
T2 sequence (P19793 1-462 partner): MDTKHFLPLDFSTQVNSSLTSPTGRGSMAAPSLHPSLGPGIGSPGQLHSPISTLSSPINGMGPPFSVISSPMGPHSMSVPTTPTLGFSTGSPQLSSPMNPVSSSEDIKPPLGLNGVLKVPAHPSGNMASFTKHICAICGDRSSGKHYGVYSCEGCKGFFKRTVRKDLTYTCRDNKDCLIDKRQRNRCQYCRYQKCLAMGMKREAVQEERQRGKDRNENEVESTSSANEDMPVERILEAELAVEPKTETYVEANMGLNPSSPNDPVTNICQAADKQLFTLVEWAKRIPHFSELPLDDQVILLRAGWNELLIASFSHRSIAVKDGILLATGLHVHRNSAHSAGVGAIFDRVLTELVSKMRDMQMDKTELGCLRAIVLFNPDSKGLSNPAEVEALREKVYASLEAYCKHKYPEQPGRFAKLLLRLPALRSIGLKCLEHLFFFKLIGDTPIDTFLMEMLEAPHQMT
Assay: PPARγ agonistic activity: luciferase reporter assay in PPARγ:RXRα:4ERPP/CHO-K1 cells
Type: cell-based
Conditions: CHO-K1, test compound 10^−6 M; luciferase activity of control compound X (1 μM) = 100%, non-administration group = 0%
Description: A CHO-K1 cell cultured in a 150 cm^2 cell culture flask [manufactured by Corning Costar Corporation, USA] comprising Ham's F12 medium [manufactured by INVITROGEN, USA] supplemented with 10% fetal bovine serum [manufactured by INVITROGEN, USA] was taken off by treating with 0.5 g/L trypsin-0.2 g/L EDTA (ethylenediamine tetraacetate) [manufactured by Life Technologies, Inc., USA], and then the cell was washed with PBS (Phosphate-buffered saline) [manufactured by INVITROGEN, USA], centrifuged (1000 rpm, 5 minutes) and suspended in PBS. Subsequently, DNA was introduced into the cell under the conditions shown below using GENE PULSER [manufactured by Bio-Rad Laboratories, USA].
Namely, to a cuvette having a 0.4 cm gap were added 8×10^6 cells and 10 μg of plasmid pVgRXR2-hPPARγ obtained in the above-mentioned (4) and 10 μg of reporter plasmid pGL3-4ERPP-TK neo obtained in the above-mentioned (3), which was subjected to electroporation at the voltage of 0.25 kV under the capacitance of […] Subsequently, the cell was transferred into a F12 medium comprising 10% fetal bovine serum and cultured for 24 hours, and then the cell was taken off again and centrifuged. Then, the pellet was suspended in Ham's F12 medium comprising 10% fetal bovine serum supplemented with 500 μg/ml of Geneticin [manufactured by INVITROGEN, USA] and 250 μg/ml of Zeocin [manufactured by INVITROGEN, USA]. The obtained suspension was diluted to the density of 10^4 cells/ml and inoculated in a 96-well plate [manufactured by Corning Costar Corporation, USA], which was cultured in a CO2 gas incubator at 37° C., whereby obtaining a Geneticin- and Zeocin-resistant transformant.
Subsequently, after the transformed cell line thus obtained was cultured in a 24-well plate [manufactured by Corning Costar Corporation, USA], a cell line in which expression of the luciferase was induced, i.e., PPARγ:RXRα:4ERPP/CHO-K1 cell was selected by the addition of 10 μM pioglitazone hydrochloride.
PPARγ:RXRα:4ERPP/CHO-K1 cells obtained in the above-mentioned (5) were cultured in F12 medium [manufactured by INVITROGEN, USA] containing 10% fetal bovine serum [manufactured by MOREGATE, Australia], seeded in a 96 well half-area white plate [manufactured by Corning Coster Corporation, USA] at 5×10^3 cells/well, and cultured in a CO2 incubator at 37° C. overnight.
Then, the medium was removed from the 96 well half-area white plate, hamF12 medium containing 0.1% fatty acid-free bovine serum albumin (BSA) (45 μl) and a test compound (5 μl) were added, and the mixture was cultured in the CO2 incubator at 37° C. for 1 day. After removing the medium, Picagene 7.5 [manufactured by Dai Nippon Inki, Japan] (20 μl) diluted 2-fold with HBSS (HANKS' BALANCED SALT SOLUTION) [manufactured by BIO […], USA] was added, and the mixture was stirred. Using 1420 ARVO Multilabel Counter [manufactured by PerkinElmer, USA], luciferase activity was measured. The percentage (%) was calculated from the luciferase activity of the test compound when the luciferase activity of the control compound (compound X: 5-[3-(4-{[2-(2-furyl)-5-methyl-1,3-oxazol-4-yl]methoxy}-3-methoxyphenyl)propyl]-1,3-oxazolidine-2,4-dione) (1 μM) was taken as 100% and the luciferase activity of the test compound non-administration group was taken as 0%.

First: CCCc1c(Cc2ccc(-c3ccccc3-c3noc(=O)[nH]3)cc2)c(=O)n([C@H]2CC[C@H](OCC(C)O)CC2)c2ccnn12 (relative stereo) [Example 419, 4-[trans-4-(2-hydroxypropoxy)cyclohexyl]-6-{[2′-(5-oxo-4,5-dihydro-1,2,4-oxadiazol-3-yl)biphenyl-4-yl]methyl}-7-propylpyrazolo[1,5-a]pyrimidin-5(4H)-one]
Second: CCCc1c(Cc2ccc(-c3ccccc3-c3noc(=O)[nH]3)cc2)c(=O)n([C@H]2CC[C@H](OCC(C)(C)O)CC2)c2ccnn12 [Example 413, 4-[trans-4-(2-Hydroxy-2-methylpropoxy)cyclohexyl]-6-{[2′-(5-oxo-4,5-dihydro-1,2,4-oxadiazol-3-yl)biphenyl-4-yl]methyl}-7-propylpyrazolo[1,5-a]pyrimidin-5(4H)-one]
The activation at 1 µM of the first is lower: 21% for the first, 25% for the second.

First: CCCc1c(Cc2ccc(-c3ccccc3-c3noc(=O)[nH]3)cc2)c(=O)n([C@H]2CC[C@H](OCC(C)O)CC2)c2ccnn12 (single isomer, unassigned) [Example 440, 4-[trans-4-(2-hydroxypropoxy)cyclohexyl]-6-{[2′-(5-oxo-4,5-dihydro-1,2,4-oxadiazol-3-yl)biphenyl-4-yl]methyl}-7-propylpyrazolo[1,5-a]pyrimidin-5(4H)-one (optically active form, retention time: short)]
Second: CCCc1c(Cc2ccc(-c3ccccc3-c3noc(=O)[nH]3)cc2)c(=O)n([C@H]2CC[C@@H](OCC(C)(C)O)CC2)c2ncnn12 [Example 158, 4-[cis-4-(2-hydroxy-2-methylpropoxy)cyclohexyl]-6-{[2′-(5-oxo-4,5-dihydro-1,2,4-oxadiazol-3-yl)biphenyl-4-yl]methyl}-7-propyl[1,2,4]triazolo[1,5-a]pyrimidin-5(4H)-one]
The activation at 1 µM of the first is lower: 16% for the first, 37% for the second.

First: CCCc1c(Cc2ccc(-c3ccccc3-c3noc(=O)[nH]3)cc2F)c(=O)n(C2CCOC2)c2nc(C)nn12 (stereo not shown) [Example 120, 6-{[3-fluoro-2′-(5-oxo-4,5-dihydro-1,2,4-oxadiazol-3-yl)biphenyl-4-yl]methyl}-2-methyl-7-propyl-4-(tetrahydrofuran-3-yl)[1,2,4]triazolo[1,5-a]pyrimidin-5(4H)-one]
Second: CCCc1c(Cc2ccc(-c3ccccc3-c3noc(=O)[nH]3)cc2F)c(=O)n([C@H]2C[C@H](OCC(C)(C)O)C2)c2nc(C)nn12 [Example 403, 6-{[3-fluoro-2′-(5-oxo-4,5-dihydro-1,2,4-oxadiazol-3-yl)biphenyl-4-yl]methyl}-4-[trans-3-(2-hydroxy-2-methylpropoxy)cyclobutyl]-2-methyl-7-propyl[1,2,4]triazolo[1,5-a]pyrimidin-5(4H)-one]
The activation at 1 µM of the first is higher: 18% for the first, 17% for the second.

Compared with `CCCc1c(Cc2ccc(-c3ccccc3-c3noc(=O)[nH]3)cc2)c(=O)n([C@H]2CC[C@H](OCC(C)(C)O)CC2)c2ncnn12` [Example 381, 4-[trans-4-(2-hydroxy-2-methylpropoxy)cyclohexyl]-6-{[2′-(5-oxo-4,5-dihydro-1,2,4-oxadiazol-3-yl)biphenyl-4-yl]methyl}-7-propyl[1,2,4]triazolo[1,5-a]pyrimidin-5(4H)-one], `CCCc1c(Cc2ccc(-c3ccccc3-c3noc(=O)[nH]3)cc2F)c(=O)n([C@H]2C[C@@H](OCC(C)(C)O)C2)c2nc(C)nn12` [Example 404, 6-{[3-fluoro-2′-(5-oxo-4,5-dihydro-1,2,4-oxadiazol-3-yl)biphenyl-4-yl]methyl}-4-[cis-3-(2-hydroxy-2-methylpropoxy)cyclobutyl]-2-methyl-7-propyl[1,2,4]triazolo[1,5-a]pyrimidin-5(4H)-one] is lower in activation at 1 µM: 32% for the first, 28% for the second.
